Where two headings read alike, the source gives them in different places.

Holding throughout (assay type): cell-based
Data set [1] is described as follows: CCK-8 viability of 3T3 fibroblast cells. The settings on record: mouse, read-out: % Cell viability against 3T3 fibroblast cell line. Here is the method: (§1) For the anticancer studies, we established a stable cell culture for mouse breast cancer cell line 4T1 (ATCC: CRL-2539) cultured in the medium composition RPMI-1640 (Gibco; Grand Island, New York, USA), 10% fetal bovine serum (Gibco, Mexico), 4.5 g/L glucose, 1.5 g/L NaHCO3, 1 mM sodium pyruvate (Gibco; Grand Island, New York, NY, USA), and 1% penicillin–streptomycin (10,000 U/mL). We observed typical cell morphology after the IV passage of cells unfrozen from liquid nitrogen. Then, the cells were used for the subsequent anticancer experiment. A non-cancerous fibroblast cell line (3T3/NIH, ATCC: CRL-1658) was employed for the fluorescence imaging assay. The cells were cultured in 90% Dulbecco’s modified Eagle’s medium with 4 mM L-glutamine, 2 mM sodium pyruvate, 1% non-essential amino acid, 1% penicillin/streptomycin/amphotericin, and 10% fetal bovine serum.
(§2) A total of 5.0 × 10^4 of 3T3 cells per well in a 96-well plate were co-cultured with the 1.0 μg/mL of SA samples for 72 h. The viability of the 3T3 cells was assayed by using 10% CCK-8 reagent for 60 min to determine the toxicity of the SA samples. Afterwards, the cells were fixed with glutaraldehyde, followed by staining with 0.1 μg/mL of 4′,6-diamidino-2-phenylindole (DAPI) for the imaging of the nuclei. An inverted fluorescent optical microscope (Nikon, Eclipse Ti-S, Japan) was utilized. The fluorescent light source was Nikon Intensilight C-HGFI, and two fluorescent filter cubes (Ex = 340–380 nm, Em = 435–485 nm, corresponding to DAPI, and Ex = 465–495 nm, Em = 512–558 nm, corresponding to SA samples) were used to observe the distribution of SA samples in the cytoplasm. A scientific-grade CCD (Dhyana, model: 400 BSI, Tucsen, Fuzhou, China) was used to record the images. The magnification of the OM was 200×. The original fluorescent images were recorded in greyscale. ImageJ software (an open-source software, NIH Image, version 1.54f, Bethesda, MD, USA) was employed to merge and convert two fluorescent images into visible colors, e.g., blue for cell nuclei and green for SA1–SA7 samples.

The test system of data set [2] is mouse breast cancer 4T1 cell line. In words: MTT cytotoxicity assay on 4T1 breast cancer cells. Particulars: 24 h. As for the experimental part:
as §1
A cellular viability assay was employed for the cytotoxicity of SA samples. […] A cell viability reagent (MTT, Sigma-Aldrich, St Louis, MI, USA) containing yellow tetrazolium salt (3-(4,5-dimethylthiazol-2-yl)-2,5-diphenyltetrazolium bromide) can be converted to purple formazan salt to indicate the cell viability. The 4T1 breast cancer cells were cultured at a density of 5.0 × 10^3 cells per well in 96-well plates. The cells were treated with SA samples for 24 h. The control groups were abbreviated as Cont (100% culture medium), representing normal cell culture; PC (20% DMSO and 80% culture medium), representing toxic condition; and NC (0.1% DMSO and 99.9%), representing minimum toxic condition. MTT reagent was added to 96-well plates to measure the cytotoxic effect of the SA compounds on 4T1 cells.
(In general: Tetrazolium dyes change colour on reduction, which living cells bring about.)

In the next data set the test system is 3T3 fibroblast cell line. In words: CCK-8 viability of 3T3 fibroblast cells. The settings on record: 1 μg/mL, 72 h. Here is the method:
as §1, §2

The term viability denotes a per cent measure of how many cells are alive, often set against a control. For the compound `O=C1c2cccc3cccc(c23)C(=O)N1CCN1CCN(S(=O)(=O)c2ccccc2[N+](=O)[O-])CC1` [SA1, 2-(2-(4-((2-Nitrophenyl)sulfonyl)piperazin-1-yl)ethyl)-1H-benzo[de]isoquinoline-1,3 (2H)-dione], the viability at 72 h, 1 μg/mL in data set [1] (3T3/NIH fibroblast cells (non-cancerous)) was 82 to 95%. Turning to `O=C1c2cccc3cccc(c23)C(=O)N1CCN1CCN(S(=O)(=O)c2ccc3ccccc3c2)CC1` [SA2, 2-(2-(4-(Naphthalen-2-ylsulfonyl)piperazin-1-yl)ethyl)-1H-benzo[de]isoquinoline-1,3 (2H)-dione], in data set [1], the viability at 72 h, 1 μg/mL is 82 to 95%. Consider `O=C1c2cccc3cccc(c23)C(=O)N1CCN1CCN(S(=O)(=O)c2ccc([N+](=O)[O-])cc2)CC1` [SA3, 2-(2-(4-((4-Nitrophenyl)sulfonyl)piperazin-1-yl)ethyl)-1H-benzo[de]isoquinoline-1,3 (2H)-dione], for which the “cytotoxicity against 4T1 breast cancer cells (in words)” value (from here on “cytotoxicity”) in data set [2] was “low toxicity”. In data set [1], the viability at 72 h, 1 μg/mL is 82 to 95%. Moreover, the “% Cell viability against 3T3 fibroblast cell line” value with 3T3 fibroblast cell line is “relatively high viability”. `O=C1c2cccc3cccc(c23)C(=O)N1CCN1CCN(S(=O)(=O)c2ccc(Cl)s2)CC1` [SA4, 2-(2-(4-((5-Chlorothiophen-2-yl)sulfonyl)piperazin-1-yl)ethyl)-1H-benzo[de]isoquinoline-1,3(2H)-dione]: in data set [1], the viability at 72 h, 1 μg/mL is 82 to 95%. Take `O=C1c2cccc3cccc(c23)C(=O)N1CCN1CCN(S(=O)(=O)c2cccs2)CC1` [SA5, 2-(2-(4-(Thiophen-2-ylsulfonyl)piperazin-1-yl)ethyl)-1H-benzo[de]isoquinoline-1,3(2H)-dione]: the “cytotoxicity” value in data set [2] is on record as “most potent (cytotoxic) compound”. This compound also returned a viability at 0.7 µM in data set [2] (Mus musculus, 4T1, 0.7 μM) of less than 80%. Besides, the viability at 72 h, 1 μg/mL in data set [1] lay in the range of 82 to 95%. As for `O=C1c2cccc3cccc(c23)C(=O)N1CCN1CCN(S(=O)(=O)c2cccnc2)CC1` [SA6, 2-(2-(4-(Pyridin-3-ylsulfonyl)piperazin-1-yl)ethyl)-1H-benzo[de]isoquinoline-1,3(2H)-dione], the “cytotoxicity” value in data set [2] is given as “good anticancer activity”. Also, the viability at 72 h, 1 μg/mL in data set [1] is 82 to 95%. Consider `N#Cc1ccc(S(=O)(=O)N2CCN(CCN3C(=O)c4cccc5cccc(c45)C3=O)CC2)cc1` [SA7, 4-((4-(2-(1,3-Dioxo-1H-benzo[de]isoquinolin-2(3H)-yl)ethyl)piperazin-1-yl)sulfonyl)benzonitrile], for which the viability at 72 h, 1 μg/mL in data set [1] fell in the range of 82 to 95%.

Values taken from PMC10816875, “Synthesis, Characterization, Cytotoxicity, Cellular Imaging, Molecular Docking, and ADMET Studies of Piperazine-Linked 1,8-Naphthalimide-Arylsulfonyl Derivatives” (International Journal of Molecular Sciences, 2024).
